Here are results for 1 compound from paper PMC12275099, “VX-445 (elexacaftor) inhibits chloride secretion across human bronchial epithelial cells by directly blocking KCa3.1 channels” (PNAS Nexus, 2025).

The target of series [1] is T1, endogenous KCa3.1 in WT CFTR-expressing HBEs (Homo sapiens, UniProt O15554).
T1 construct: endogenous in cells; host or cells: undifferentiated primary human bronchial epithelial cells (WT CFTR donors)
In words: Whole-cell patch-clamp on undifferentiated HBEs. The series is classed as cell-based. The note with it: VX-445 10 µM; 500 nM free Ca2+ in pipette; n = 3; read-out: inhibition of whole-cell outward potassium current. The procedure: Our Isc results are consistent with VX-445 inhibiting KCa3.1 in HBEs. To directly assess this possibility, we initially carried out whole-cell patch-clamp studies on undifferentiated HBEs. […] Upon application of 10 µM VX-445, a majority of this current was inhibited, averaging 87 ± 4% (n = 3, P < 0.005; Fig. 3B). A summary of the current–voltage (I–V) relationship—normalized to cell capacitance—is shown in Fig. 3C, which also includes the whole-cell I–V in the presence of Tram-34. […] To ensure isolation of KCa3.1 currents and to more fully characterize this VX-445-dependent inhibition of KCa3.1, we utilized HEK cells heterologously expressing KCa3.1 (HEK-KCa3.1). Initially, we confirmed our results from HBEs, using whole-cell recordings, as above. […] In seven experiments, this inhibition averaged 58 ± 7% (P < 0.005). […] It is well recognized that drugs are carried to their targets in the blood bound to albumin, which ranges from 3.4 to 5.4%. Thus, we determined whether VX-445 (10 µM) would inhibit KCa3.1 expressed in HEK cells in the presence of 3.4% albumin. In four experiments, VX-445 inhibited an average of 51 ± 17% of the whole-cell KCa3.1 current, which is not different from that observed in the absence of albumin. To confirm the direct effect of VX-445 on KCa3.1, we utilized the excised, inside-out patch-clamp technique. The patch was then exposed to DCEBIO (100 µM) to further activate the channels ([34–37])—analogous to our Isc studies in HBEs. […] In three experiments, VX-445 inhibited an average of 63 ± 6% of the KCa3.1 current. Based on these experiments, we determined the apparent inhibitory constant, Ki for VX-445. For these experiments, patches were excised into saturating Ca^2+ (3 µM) to ensure maximal KCa3.1 activation. These studies were carried out in the absence of DCEBIO to eliminate the possibility that the inhibition observed was due to competition for the DCEBIO-binding site.
Primary human bronchial epithelial cells (HBEs) were collected from unused or discarded samples from the Center for Organ Recovery and Education via the University of Pittsburgh Pulmonary, Allergy, Critical Care, and Sleep Medicine Lung Biobank and Repository. All experimental procedures involving the use of HBEs were approved by the institutional review board (IRB STUDY19090084) and the Committee for Oversight of Research and Clinical Training Involving Decedents (CORID number 451) at the University of Pittsburgh. At all times, authors were blind to the identity of HBE donors. HBEs were cultured using the Vertex method ([72]). Studies were carried out on WT CFTR HBEs from 11 ([13]) donors and homozygous F508del/F508del CFTR HBEs from five ([5]) separate donors. […]

On the set-up of series [2]: method as in earlier work. The note with it: clinical trial data, converted, cited from earlier work.
Details of series [3]: method as in PMID 36371965. The note with it: patients with CF, converted; cited from earlier work.

With `Cc1nn(C)cc1S(=O)(=O)NC(=O)c1ccc(-n2ccc(OCC(C)(C)C(F)(F)F)n2)nc1N1C[C@@H](C)CC1(C)C` [VX-445, elexacaftor], the inhibition at 10 µM in series [1] amounted to 87 ± 4%. Moreover, in series [2], the “minimal (Cmin) plasma concentration” value is 6 to 9 µM. Besides, the Cmax in series [2] (read-out: maximal (Cmax) plasma concentration) was around 15 µM. In addition, the “mean concentration in nasal brushing cell lysates, upper end” value in series [3] is reported as around 9 µM.

In general, inhibition refers to the percentage by which the read-out fell short of the control.
